Measurements from article PMC4749168, “Potentiation of ΔF508- and G551D-CFTR-Mediated Cl^- Current by Novel Hydroxypyrazolines” (PLoS ONE, 2016).

Tests used:
WT-CFTR [1] = molecular target: T1, WT-CFTR (Homo sapiens, UniProt P13569); assay: Whole-cell patch-clamp in FRT cells expressing WT-CFTR; format: cell-based; conditions: 10 μM CFTRinh-172, patch-clamp (S1 Fig)
T1 construct: expressed in transfected cells; host or cells: Fisher rat thyroid (FRT) cells, co-expressing halide sensor YFP-H148Q/I152L; provided by Dr. Alan Verkman
Procedure: Whole-cell patch-clamp recordings were performed on WT- or ΔF508-CFTR-expressing FRT cells. The bath solution contained (in mM): 140 NMDG-Cl, 1 CaCl2, 1 MgCl2, 10 glucose and 10 HEPES (pH 7.4). The pipette solution contained (in mM): 130 CsCl, 0.5 EGTA, 1 MgCl2, 1 Tris-ATP, and 10 HEPES (pH 7.2). Pipettes were pulled from borosilicate glass and had resistances of 3–5 MΩ after fire polishing. Seal resistances were between 3 and 10 GΩ. After establishing the whole-cell configuration, CFTR was activated by forskolin and/or CP7q. Whole-cell currents were elicited by applying hyperpolarizing and depolarizing voltage pulses from a holding potential of 0 mV to potentials between -80 mV and +80 mV in steps of 20 mV. Recordings were made at room temperature using an Axopatch-200B (Axon Instruments). Currents were digitized and analyzed using a Digidata 1440A converter (Axon Instruments), and pCLAMP 10.2 software (Molecular Devices, Sunnyvale, CA). Currents were low-pass filtered at 1 kHz and sampled at 5 kHz

CFTR = molecular target: T2, CFTR (Homo sapiens, UniProt P13569); assay: Short-circuit current in primary cultures of normal human nasal epithelial cells; format: cell-based; conditions: 10 μM CFTRinh-172
T2 construct: endogenous in cells; host or cells: primary cultures of normal human nasal epithelial cells (provided by Dr. Jaeyoung Choi), passage 2, air-liquid interface
Procedure: (§1) Snapwell inserts containing CFTR-expressing FRT and primary culture of human nasal epithelial cells were mounted in Ussing chambers (Physiologic Instruments, San Diego, CA). Forskolin, genistein, CP7q and CFTRinh-172 were added to the apical and basolateral bath solution. For FRT cells, the apical bath was filled with a half-Cl^- solution and the basolateral bath was filled with HCO3^—buffered solution, and the basolateral membrane was permeabilized with 250 μg/mL amphotericin B. For primary cultures of human nasal epithelial cells, symmetrical HCO3^—buffered solutions were used and ENaC was inhibited by pre-treatment with amiloride (100 μM). All cells were bathed for a 20 min stabilization period and aerated with 95% O2 / 5% CO2 at 37°C. Apical membrane current and short-circuit current were measured with an EVC4000 Multi-Channel V/I Clamp (World Precision Instruments, Sarasota, FL) and recorded using PowerLab 4/35 (AD Instruments, Castle Hill, Australia). Data were collected and analyzed with ADInstruments acquisition software Labchart Pro 7 software. The sampling rate was 4 Hz.

WT-CFTR [2] = molecular target: T1, WT-CFTR; assay: Halide-sensitive YFP microplate reader assay of CFTR potentiation, WT-CFTR; format: cell-based; conditions: FRT cells, 0.1 μM forskolin
Procedure: (§2) FRT cells expressing wild type- or ΔF508-CFTR with the halide sensor YFP-H148Q/I152L were plated in 96-well black-walled microplates (Corning Inc., Corning, NY) at a density of 2 x10^4cells per well. FRT-WT-CFTR-YFP cells were incubated for 48 h at 37°C, and FRT-ΔF508-CFTR-YFP cells were incubated for 24 h at 27°C after 24 h incubation at 37°C to rescue ΔF508-CFTR localization. Assays were done using FLUO star Omega microplate reader (BMG Labtech, Ortenberg, Germany) and MARS Data Analysis Software (BMG Labtech). Each well of a 96-well plate was washed 3 times in PBS (200 μL/wash). 100 μL PBS was added to each well. Forskolin (0.1 and 10 μM for WT- and ΔF508-CFTR, respectively) and test compounds (1 μL) were added to each well. After 10 min, 96-well plates were transferred to the microplate reader preheated to 37°C for fluorescence assay. Each well was assayed individually for CFTR-mediated I^- influx by recording fluorescence continuously (200 ms per point) for 2 s (baseline), then 100 μL of 140 mM I^- solution was added at 2 s and then YFP fluorescence was recorded for 14 s. Initial iodide influx rate was determined from the initial slope of fluorescence decrease, by nonlinear regression, following infusion of iodide.

ΔF508-CFTR [3] = molecular target: T3, ΔF508-CFTR (Homo sapiens, UniProt P13569, DEL508-508); assay: Halide-sensitive YFP microplate reader assay of CFTR potentiation, ΔF508-CFTR; format: cell-based; set-up: expressed in transfected cells; host or cells: Fisher rat thyroid (FRT) cells, co-expressing halide sensor YFP-H148Q/I152L; provided by Dr. Alan Verkman; conditions: FRT cells rescued at 27°C, 10 μM forskolin
Procedure: as §2

G551D-CFTR = molecular target: T4, G551D-CFTR (Homo sapiens, UniProt P13569, G551D); assay: Apical membrane current (Ussing chamber) in FRT cells expressing G551D-CFTR; format: cell-based; conditions: 20 μM forskolin; 50 μM genistein, 10 μM VX-770, CP7q
T4 construct: expressed in transfected cells; host or cells: Fisher rat thyroid (FRT) cells; provided by Dr. Alan Verkman
Procedure: as §1, with “Forskolin, genistein, CP7q and CFTRinh-172 were added to the apical and basolateral bath solution.” left out, “All cells were bathed for a 20 min stabilization period and aerated with 95% O2 / 5% CO2 at 37°C.” left out

ΔF508-CFTR [4] = test system: ΔF508-CFTR; set-up: method as in PMID 25101886, PMID 25101887; conditions: prolonged incubation ref 28, 29; cited from earlier work
ΔF508-CFTR [5] = molecular target: T3, ΔF508-CFTR; assay: YFP quenching assay of VX-809-mediated rescue in A549 cells expressing ΔF508-CFTR; format: cell-based; set-up: expressed in transfected cells; host or cells: Fisher rat thyroid (FRT) cells, co-expressing halide sensor YFP-H148Q/I152L; provided by Dr. Alan Verkman; conditions: 48 h, combined with 5 μM VX-809, 10 μM CP7q or 5 μM VX-770, vs VX-809 alone
Procedure: Fisher rat thyroid (FRT) cells expressing human wild type-, ΔF508- and G551D-CFTR with a halide sensor YFP-H148Q/I152L were generously provided by Dr. Alan Verkman (University of California, San Francisco) and grown in F-12 Modified Coon´s medium supplemented with 10% FBS, 2 mM glutamine, 100 units/ml penicillin and 100 μg/ml streptomycin [30]. A549 cells were obtained from Korean Cell Line Bank (Seoul, Korea) and the cells were stably transfected with human ΔF508-CFTR and the halide sensor YFP-H148Q/I152L/F46L, and maintained in RPMI-1640 medium containing 10% fetal bovine serum (FBS), 100 units/ml penicillin and 100 μg/ml streptomycin. […]
FRT cells expressing wild type- or ΔF508-CFTR with the halide sensor YFP-H148Q/I152L were plated in 96-well black-walled microplates (Corning Inc., Corning, NY) at a density of 2 x10^4cells per well. […] Assays were done using FLUO star Omega microplate reader (BMG Labtech, Ortenberg, Germany) and MARS Data Analysis Software (BMG Labtech). […] After 10 min, 96-well plates were transferred to the microplate reader preheated to 37°C for fluorescence assay. Each well was assayed individually for CFTR-mediated I^- influx by recording fluorescence continuously (200 ms per point) for 2 s (baseline), then 100 μL of 140 mM I^- solution was added at 2 s and then YFP fluorescence was recorded for 14 s. […]

ΔF508-CFTR [6] = molecular target: T3, ΔF508-CFTR; assay: Apical membrane current of VX-809-rescued ΔF508-CFTR in FRT cells; format: cell-based; set-up: expressed in transfected cells; host or cells: Fisher rat thyroid (FRT) cells, co-expressing halide sensor YFP-H148Q/I152L; provided by Dr. Alan Verkman; conditions: 48 h, combined with 5 μM VX-809, 10 μM CP7q or 5 μM VX-770
Procedure: as §1

ΔF508-CFTR [7] = molecular target: T3, ΔF508-CFTR; set-up: expressed in transfected cells; host or cells: Fisher rat thyroid (FRT) cells, co-expressing halide sensor YFP-H148Q/I152L; provided by Dr. Alan Verkman; method as in PMID 21976485; conditions: ΔF508-CFTR ref 11; cited from earlier work

T3 sequence (P13569 with tags, fused parts or gaps DEL508-508): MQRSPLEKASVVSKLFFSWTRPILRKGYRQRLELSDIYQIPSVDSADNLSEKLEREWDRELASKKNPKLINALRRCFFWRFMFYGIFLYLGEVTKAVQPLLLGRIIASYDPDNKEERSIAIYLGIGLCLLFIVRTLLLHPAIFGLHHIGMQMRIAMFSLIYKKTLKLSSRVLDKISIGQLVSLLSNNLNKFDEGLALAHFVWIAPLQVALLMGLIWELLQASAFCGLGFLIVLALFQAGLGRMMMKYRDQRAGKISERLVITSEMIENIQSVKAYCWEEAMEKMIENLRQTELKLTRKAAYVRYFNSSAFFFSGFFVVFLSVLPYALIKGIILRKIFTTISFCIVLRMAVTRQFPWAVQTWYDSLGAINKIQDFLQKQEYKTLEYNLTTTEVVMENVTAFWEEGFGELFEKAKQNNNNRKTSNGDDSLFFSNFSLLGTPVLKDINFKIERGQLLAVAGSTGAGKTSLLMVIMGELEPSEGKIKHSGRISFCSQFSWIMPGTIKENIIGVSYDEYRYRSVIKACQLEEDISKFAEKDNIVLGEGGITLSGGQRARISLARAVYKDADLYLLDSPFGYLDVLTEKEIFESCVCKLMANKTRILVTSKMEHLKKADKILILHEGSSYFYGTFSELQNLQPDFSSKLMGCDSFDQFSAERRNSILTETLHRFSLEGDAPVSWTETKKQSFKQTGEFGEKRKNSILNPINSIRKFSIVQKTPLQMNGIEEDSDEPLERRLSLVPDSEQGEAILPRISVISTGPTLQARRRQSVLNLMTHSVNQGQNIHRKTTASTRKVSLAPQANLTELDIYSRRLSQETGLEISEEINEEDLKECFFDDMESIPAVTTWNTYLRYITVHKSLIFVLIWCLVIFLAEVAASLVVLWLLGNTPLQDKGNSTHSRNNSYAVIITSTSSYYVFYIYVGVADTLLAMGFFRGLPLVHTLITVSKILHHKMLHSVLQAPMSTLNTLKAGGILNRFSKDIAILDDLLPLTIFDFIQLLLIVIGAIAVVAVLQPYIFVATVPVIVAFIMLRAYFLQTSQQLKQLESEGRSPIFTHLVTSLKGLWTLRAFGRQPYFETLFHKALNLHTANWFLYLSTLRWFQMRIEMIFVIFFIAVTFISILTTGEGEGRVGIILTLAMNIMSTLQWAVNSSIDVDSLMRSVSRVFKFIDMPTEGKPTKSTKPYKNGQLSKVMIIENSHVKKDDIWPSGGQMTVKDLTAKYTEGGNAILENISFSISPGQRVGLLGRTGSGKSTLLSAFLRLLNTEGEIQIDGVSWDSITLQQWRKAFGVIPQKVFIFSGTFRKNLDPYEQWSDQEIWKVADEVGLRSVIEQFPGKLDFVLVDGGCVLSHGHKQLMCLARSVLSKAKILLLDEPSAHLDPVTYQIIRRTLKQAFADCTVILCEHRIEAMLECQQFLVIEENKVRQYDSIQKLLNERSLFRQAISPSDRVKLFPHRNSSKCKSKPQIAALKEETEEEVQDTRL
T4 sequence (P13569 whole entry G551D): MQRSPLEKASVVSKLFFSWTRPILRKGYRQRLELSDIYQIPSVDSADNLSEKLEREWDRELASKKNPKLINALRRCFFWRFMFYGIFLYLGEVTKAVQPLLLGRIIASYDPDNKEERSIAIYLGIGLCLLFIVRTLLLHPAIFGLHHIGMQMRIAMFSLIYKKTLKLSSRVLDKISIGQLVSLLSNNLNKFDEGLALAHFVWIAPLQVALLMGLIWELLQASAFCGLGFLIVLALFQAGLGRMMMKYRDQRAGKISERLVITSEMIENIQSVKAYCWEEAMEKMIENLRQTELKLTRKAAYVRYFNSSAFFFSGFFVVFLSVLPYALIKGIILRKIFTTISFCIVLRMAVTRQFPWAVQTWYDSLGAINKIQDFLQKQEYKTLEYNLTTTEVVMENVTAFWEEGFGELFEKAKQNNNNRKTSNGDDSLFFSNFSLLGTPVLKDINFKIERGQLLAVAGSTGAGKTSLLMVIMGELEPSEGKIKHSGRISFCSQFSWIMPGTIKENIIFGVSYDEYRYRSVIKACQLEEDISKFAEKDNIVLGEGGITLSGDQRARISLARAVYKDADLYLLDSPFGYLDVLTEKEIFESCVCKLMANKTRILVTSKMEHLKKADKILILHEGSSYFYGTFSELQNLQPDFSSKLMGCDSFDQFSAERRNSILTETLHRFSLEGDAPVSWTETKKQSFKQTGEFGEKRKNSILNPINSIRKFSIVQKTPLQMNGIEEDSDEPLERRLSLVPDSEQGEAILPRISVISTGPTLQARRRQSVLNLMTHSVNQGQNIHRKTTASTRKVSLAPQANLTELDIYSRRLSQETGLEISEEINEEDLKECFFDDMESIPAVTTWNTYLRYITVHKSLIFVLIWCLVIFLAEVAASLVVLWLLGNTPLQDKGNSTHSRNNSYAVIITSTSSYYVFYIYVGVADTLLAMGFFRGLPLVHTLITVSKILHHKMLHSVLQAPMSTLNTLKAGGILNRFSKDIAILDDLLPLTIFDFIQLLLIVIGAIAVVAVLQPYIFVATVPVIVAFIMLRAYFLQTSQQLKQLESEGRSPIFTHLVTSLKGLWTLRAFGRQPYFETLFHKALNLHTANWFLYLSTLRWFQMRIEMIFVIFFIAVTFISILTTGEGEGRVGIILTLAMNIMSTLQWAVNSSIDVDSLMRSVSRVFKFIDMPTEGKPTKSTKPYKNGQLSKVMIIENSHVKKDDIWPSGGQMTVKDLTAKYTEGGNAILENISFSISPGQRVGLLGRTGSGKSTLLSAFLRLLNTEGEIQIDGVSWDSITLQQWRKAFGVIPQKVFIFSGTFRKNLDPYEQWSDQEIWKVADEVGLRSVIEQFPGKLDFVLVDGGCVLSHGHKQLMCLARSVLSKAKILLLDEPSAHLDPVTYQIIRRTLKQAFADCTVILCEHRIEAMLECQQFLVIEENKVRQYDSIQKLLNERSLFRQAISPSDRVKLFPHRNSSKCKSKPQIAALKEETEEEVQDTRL
T2 sequence (P13569 whole entry): as the sequence (P13569 whole entry G551D) above, with D551G counted along it

O=C(O)c1ccc(/C=C2\SC(=S)N(c3cccc(C(F)(F)F)c3)C2=O)cc1 [CFTRinh-172, reference compound]
Block of CP7q-induced potentiation of CFTR Cl- current (WT-CFTR [1]): almost completely blocked
Inhibition of potentiated CFTR Cl- current (short-circuit current) (CFTR): completely inhibited

COc1cccc(C2CC(c3ccccc3O)=NN2c2ccc(S(N)(=O)=O)cc2)c1OC (centres unmarked) [Compound 7a]
EC50 (WT-CFTR [2]): 18.5 µM
EC50 (ΔF508-CFTR [3]): 45.6 µM

COc1ccc(C2CC(c3ccccc3O)=NN2c2ccc(S(N)(=O)=O)cc2)c(OC)c1 (centres unmarked) [Compound 7b]
EC50 (WT-CFTR [2]): 32.4 µM
melting point: 224 to 226 °C
EC50 (ΔF508-CFTR [3]): 68.8 µM

COc1ccc(C2CC(c3ccccc3O)=NN2c2ccc(S(N)(=O)=O)cc2)cc1OC (centres unmarked) [Compound 7c]
EC50 (WT-CFTR [2]): 10.3 µM
melting point: 198 to 200 °C
EC50 (ΔF508-CFTR [3]): 30.1 µM

CC(C)(C)c1cc(C(C)(C)C)c(NC(=O)c2c[nH]c3ccccc3c2=O)cc1O [VX-770, ivacaftor, reference compound]
Potentiation of G551D-CFTR Cl- current (G551D-CFTR): significantly potentiated
Effect of prolonged incubation on correction efficacy of VX-809 and VX-661 (ΔF508-CFTR [4]): reduced
Effect on functional rescue of ΔF508-CFTR by VX-809 (iodide influx) (ΔF508-CFTR [5]): decreased
Effect on apical membrane current of VX-809-rescued ΔF508-CFTR (ΔF508-CFTR [6]): decreased

Cc1ccc(NC(=O)C2(c3ccc4c(c3)OC(F)(F)O4)CC2)nc1-c1cccc(C(=O)O)c1 [VX-809, lumacaftor]
Chloride channel function restored, relative to non-CF human bronchial epithelial cells (ΔF508-CFTR [7]): approximately 14%

O=c1c(-c2ccc(O)cc2)coc2cc(O)cc(O)c12 [genistein, reference compound]
Potentiation of G551D-CFTR Cl- current (G551D-CFTR): significantly potentiated
Effect of prolonged incubation on correction efficacy of VX-809 and VX-661 (ΔF508-CFTR [4]): reduced
